In patent US7125868B2, “Thienothiazine compound having anti-inflammatory and analgesic properties and method of making and using the same” (priority 2001, dated 2006):

Tests used:
[1] = test system: Body Twist Reaction Induced by Acetic Acid; assay: Acetic acid induced body twist reaction (chemical stimuli induced pain); conditions: mouse
[2] = test system: Dimethylbenzene Induced Mouse Ear Swelling; assay: Dimethylbenzene induced mouse ear swelling
[3] = test system: Adjuvant Induced Rat Foot Swelling; assay: Adjuvant induced rat foot swelling (primary and secondary inflammation); format: in vivo
[4] = test system: Carrageenan Induced Rat Foot Swelling; assay: Carrageenan induced rat foot swelling; format: in vivo
Excerpt: Divide the rats randomly into five groups, with each group consisting of ten rats. […] Use carrageenan induced inflammation to cause rat plantar swelling.

Rat Gastric Mucosa Ulcer = assay: Side effects of causing rat gastric mucosa ulcer; conditions: four successive days

`Cc1cnc(NC(=O)C2=C(O)c3sc(Cl)cc3S(=O)(=O)N2C)s1` [Example 1, 6-chlorine-4-hydroxy-2-methyl-N-[2′-(5′-methyl)thiazolyl]-2H-thieno-[2,3-e]-1,2-thiazine-3-formamide-1,1-dioxide] was tested, and the “Numbers of Occurrence of Body Twist (x ± s)” value (“Numbers” for short) ([1]; 2.0 mg/kg oral) was 14.78 ± 6.38, the “Percentage of Body Twist” value ([1]; 2.0 mg/kg oral) was 90% and the “Numbers” value ([1]; 4.0 mg/kg oral) was 10.78 ± 8.15. The “Percentage of Body Twist” value ([1]; 4.0 mg/kg oral) was 80%, the “Numbers” value ([1]; 8.0 mg/kg oral) was 2.78 ± 3.49 and the “Percentage of Body Twist” value ([1]; 8.0 mg/kg oral) was 60%. For the same compound, the “Rate of Ear Swelling (x ± s)” value ([2]; 2 mg/kg oral) was 0.56 ± 0.35, the “inhibition rate (ear swelling)” value ([2]; 2 mg/kg oral) was 56% and the “Rate of Ear Swelling (x ± s)” value ([2]; 4 mg/kg oral) was 0.67 ± 0.43. For the same compound, the “inhibition rate (ear swelling)” value ([2]; 4 mg/kg oral) was 67%, the “Rate of Ear Swelling (x ± s)” value ([2]; 8 mg/kg oral) was 0.81 ± 0.26 and the “inhibition rate (ear swelling)” value ([2]; 8 mg/kg oral) was 81%. For the same compound, the “Rate of the Change in the Volume of Left and Right Feet after Giving Adjuvant” value (shortened to “Rate of the Change”) ([3]; 1.0 mg/kg oral, 18 hours) was 0.77 ± 0.28, the “Rate of the Change” value ([3]; 1.0 mg/kg oral, 24 hours) was 0.75 ± 0.24 and the “Rate of the Change” value ([3]; 1.0 mg/kg oral, 3 days) was 0.74 ± 0.28. For the same compound, the “Rate of the Change” value ([3]; 1.0 mg/kg oral, 8 days) was 0.75 ± 0.29, the “Rate of the Change” value ([3]; 1.0 mg/kg oral, 19 days) was 0.97 ± 0.19 and the “Rate of the Change” value ([3]; 2.0 mg/kg oral, 18 hours) was 0.62 ± 0.10. For the same compound, the “Rate of the Change” value ([3]; 2.0 mg/kg oral, 24 hours) was 0.60 ± 0.10, the “Rate of the Change” value ([3]; 2.0 mg/kg oral, 3 days) was 0.61 ± 0.13 and the “Rate of the Change” value ([3]; 2.0 mg/kg oral, 8 days) was 0.60 ± 0.14. The “Rate of the Change” value ([3]; 2.0 mg/kg oral, 19 days) was 0.69 ± 1.10, the “Rate of the Change” value ([3]; 4.0 mg/kg oral, 18 hours) was 0.65 ± 0.08 and the “Rate of the Change” value ([3]; 4.0 mg/kg oral, 24 hours) was 0.65 ± 0.12. The “Rate of the Change” value ([3]; 4.0 mg/kg oral, 3 days) was 0.53 ± 0.13, the “Rate of the Change” value ([3]; 4.0 mg/kg oral, 8 days) was 0.63 ± 0.16 and the “Rate of the Change” value ([3]; 4.0 mg/kg oral, 19 days) was 0.72 ± 1.12. For the same compound, the “inhibition of the primary and secondary inflammation induced by adjuvant” value ([3]; 1, 2, 4 mg/kg oral) was “dosage dependent inhibition”, the “Change in the Foot Volume after Giving the Carrageenan” value (from here on “Change in the Foot Volume”) ([4]; 1.0 mg/kg, five hours) was 0.83 ± 0.28 and the “Change in the Foot Volume” value ([4]; 1.0 mg/kg, four hours) was 0.76 ± 0.28. For the same compound, the “Change in the Foot Volume” value ([4]; 1.0 mg/kg, one hour) was 0.25 ± 0.15, the “Change in the Foot Volume” value ([4]; 1.0 mg/kg, six hours) was 0.83 ± 0.25 and the “Change in the Foot Volume” value ([4]; 1.0 mg/kg, three hours) was 0.66 ± 0.34. For the same compound, the “Change in the Foot Volume” value ([4]; 1.0 mg/kg, two hours) was 0.56 ± 0.27, the “Change in the Foot Volume” value ([4]; 2.0 mg/kg, five hours) was 0.79 ± 0.25 and the “Change in the Foot Volume” value ([4]; 2.0 mg/kg, four hours) was 0.70 ± 0.25. For the same compound, the “Change in the Foot Volume” value ([4]; 2.0 mg/kg, one hour) was 0.24 ± 0.11, the “Change in the Foot Volume” value ([4]; 2.0 mg/kg, six hours) was 0.80 ± 0.21 and the “Change in the Foot Volume” value ([4]; 2.0 mg/kg, three hours) was 0.63 ± 0.54. The “Change in the Foot Volume” value ([4]; 2.0 mg/kg, two hours) was 0.39 ± 0.17, the “Change in the Foot Volume” value ([4]; 4.0 mg/kg, five hours) was 0.60 ± 0.31 and the “Change in the Foot Volume” value ([4]; 4.0 mg/kg, four hours) was 0.59 ± 0.30. The “Change in the Foot Volume” value ([4]; 4.0 mg/kg, one hour) was 0.29 ± 0.20, the “Change in the Foot Volume” value ([4]; 4.0 mg/kg, six hours) was 0.64 ± 0.24 and the “Change in the Foot Volume” value ([4]; 4.0 mg/kg, three hours) was 0.50 ± 0.20. The “Change in the Foot Volume” value ([4]; 4.0 mg/kg, two hours) was 0.37 ± 0.22, the “effectiveness on carrageenan induced plantar swelling compared with Meloxicam” value ([4]; 1, 2, 4 mg/kg vs Meloxicam 4 mg/kg) was “substantially more effective than the positive medicine Meloxicam” and the “Ulcer Occurring Rate” value (Rat Gastric Mucosa Ulcer; 1 mg/kg oral) was 0%. The “Ulcer Occurring Rate” value (Rat Gastric Mucosa Ulcer; 2 mg/kg oral) was 30% and the “Ulcer Occurring Rate” value (Rat Gastric Mucosa Ulcer; 4 mg/kg oral) was 80%.
`Cc1cnc(NC(=O)C2=C(O)c3ccccc3S(=O)(=O)N2C)s1` [Meloxicam, reference compound] was tested, and the “Numbers” value ([1]; 8.0 mg/kg oral) was 18.11 ± 14.37, the “Percentage of Body Twist” value ([1]; 8.0 mg/kg oral) was 100% and the “Rate of Ear Swelling (x ± s)” value ([2]; 8 mg/kg oral) was 0.43 ± 0.36. For the same compound, the “inhibition rate (ear swelling)” value ([2]; 8 mg/kg oral) was 43%.
